Each structure is given as a SMILES string.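 Where inhibition never reached the appropriate level, the endpoint shown equals the highest concentration tested. Otherwise, values were interpolated linearly from a five-concentration, 48-hour dose response in 96-well plates. At the TGI there is no net growth.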 Where a SMILES comes first, the peptide text is derived from it. [ ]: non-standard residue; d: D form. ΔPro = O=C(O)[CH]1C=CCN1

Among the test systems are U251 CNS; SF-295 CNS; HOP-92 NSCLC; HCT-15 colon; CAKI-1 renal; RPMI-8226 leukemia; SF-268 CNS; SN12C renal; UACC-62 melanoma; NCI-H23 lung; UACC-257 melanoma; A549 NSCLC; NCI-H226 lung; HCT-116 colon; OVCAR-8 ovarian.
What all share (experiment): NCI-60 cell line screen, 48 h

As to `CC1(c2ccccc2)O[C@@H]2C[C@H]3[C@@H]4CCC5=CC(=O)C=C[C@]5(C)[C@@]4(F)[C@@H](O)C[C@]3(C)[C@]2(C(=O)CO)O1` (stereo not given in full), the TGI in the assay with U251 CNS is 33.3 µM; in the assay with SF-295 CNS, 36.2 µM; in the assay with HOP-92 NSCLC, 38.4 µM; in the assay with HCT-15 colon it was 36 µM; in the assay with CAKI-1 renal, 56 µM; in the assay on RPMI-8226 leukemia, 17.2 µM. Moreover, the TGI amounted to 49 µM in the assay on SF-268 CNS; 26.1 µM in the assay on SN12C renal; 35.6 µM in the assay on UACC-62 melanoma; 36.3 µM in the assay on NCI-H23 lung; 33.1 µM with UACC-257 melanoma; 29.2 µM with A549 NSCLC. In addition, the results for the TGI in the assay with NCI-H226 lung, in the assay with HCT-116 colon and in the assay on OVCAR-8 ovarian were 31 µM, 27.8 µM and 41.7 µM, respectively.
On to `O=C1C=C(c2ccccc2)OC1C1Sc2ccccc2NC1=O` (stereo not given), for which the TGI is greater than 43.3 µM in the assay with U251 CNS; 27 µM in the assay on SF-295 CNS; greater than 87 µM in the assay with HOP-92 NSCLC; greater than 100 µM in the assay with HCT-15 colon; greater than 100 µM in the assay on CAKI-1 renal; 12.5 µM with RPMI-8226 leukemia. The TGI was greater than 100 µM in the assay on SF-268 CNS; 68.8 µM with SN12C renal; greater than 49.3 µM with UACC-62 melanoma; greater than 31.5 µM with NCI-H23 lung; greater than 24.4 µM in the assay on UACC-257 melanoma; greater than 44.7 µM with A549 NSCLC. In addition, the TGI in the assay with NCI-H226 lung was greater than 83.3 µM; in the assay with HCT-116 colon, 24.6 µM; in the assay on OVCAR-8 ovarian, greater than 46.4 µM.
For `N#Cc1c(Cl)cc(C#N)n2c1nc1ccccc12`, the TGI in the assay with U251 CNS was determined as 36 µM; with SF-295 CNS it was 30.1 µM; in the assay on HOP-92 NSCLC it was 16.8 µM; in the assay with HCT-15 colon it was 21.2 µM; with CAKI-1 renal, 16.7 µM; in the assay with RPMI-8226 leukemia, 17.2 µM. Further, the TGI in the assay on SF-268 CNS worked out at 13.6 µM; in the assay on SN12C renal it was 38.6 µM; with UACC-62 melanoma, 38.4 µM; in the assay on NCI-H23 lung it was 26.8 µM; in the assay with UACC-257 melanoma it was 29.7 µM; with A549 NSCLC, 22.2 µM. In addition, the TGI with NCI-H226 lung came to 71 µM; in the assay with HCT-116 colon, 12.8 µM; in the assay with OVCAR-8 ovarian it was 21 µM.
Take `CCN(CC)C1Oc2cc3c(cc2C(c2cc(OC)c(O)c(OC)c2)C1C)OCO3` (stereo not given): the TGI in the assay with U251 CNS was 26.6 µM; in the assay on SF-295 CNS, 24.1 µM; with HOP-92 NSCLC, 77.9 µM; with HCT-15 colon, greater than 38.6 µM; in the assay with CAKI-1 renal, greater than 72.9 µM; with RPMI-8226 leukemia, 34.7 µM. Besides, the TGI was greater than 100 µM in the assay with SF-268 CNS; 36.7 µM in the assay with SN12C renal; 26.2 µM in the assay on UACC-62 melanoma; greater than 100 µM in the assay on NCI-H23 lung; greater than 100 µM in the assay with UACC-257 melanoma; 60 µM in the assay on A549 NSCLC. Also, the TGI in the assay on NCI-H226 lung came to 52.3 µM; with HCT-116 colon it was 18.2 µM; with OVCAR-8 ovarian it was 38.8 µM.
`Cn1nnc2c(C(N)=S)ncn2c1=O`: the TGI in the assay on U251 CNS, with SF-295 CNS, in the assay with HOP-92 NSCLC, in the assay on HCT-15 colon, in the assay on CAKI-1 renal and in the assay with RPMI-8226 leukemia was greater than 100 µM in each case. The TGI in the assay with SF-268 CNS, with SN12C renal, in the assay with UACC-62 melanoma, in the assay on NCI-H23 lung, in the assay with UACC-257 melanoma and in the assay on A549 NSCLC was greater than 100 µM in each case. The TGI with NCI-H226 lung, in the assay with HCT-116 colon and with OVCAR-8 ovarian was greater than 100 µM each time.
As to `Cc1ccc(N2C(=O)C3c4[nH]c5ccc(C)cc5c4C4CCC(C(C)(C)C)CC4C3C2=O)cc1` (stereo not given), the TGI is 27.7 µM with U251 CNS; 40.7 µM in the assay on SF-295 CNS; 52.1 µM in the assay on HOP-92 NSCLC; greater than 100 µM in the assay with HCT-15 colon; 45.3 µM in the assay on CAKI-1 renal; 46.3 µM in the assay on RPMI-8226 leukemia. In addition, the TGI in the assay on SF-268 CNS is 33.2 µM; with SN12C renal, 27.3 µM; in the assay on UACC-62 melanoma it was 30 µM; with NCI-H23 lung, 39.7 µM; in the assay with UACC-257 melanoma, greater than 100 µM; with A549 NSCLC, 32.8 µM. For the same molecule, the figures for the TGI in the assay with NCI-H226 lung, in the assay with HCT-116 colon and in the assay on OVCAR-8 ovarian were 48.7 µM, 37.1 µM and 24.4 µM, respectively.
Consider `Nc1nc(SCC(=O)c2ccccc2)c2[nH]cnc2n1`, for which the TGI in the assay on U251 CNS, in the assay with SF-295 CNS, in the assay on HOP-92 NSCLC, with HCT-15 colon, in the assay on CAKI-1 renal and in the assay on RPMI-8226 leukemia was greater than 100 µM each time. Moreover, the TGI in the assay on SF-268 CNS, in the assay with SN12C renal, in the assay on UACC-62 melanoma, in the assay with NCI-H23 lung, with UACC-257 melanoma and with A549 NSCLC was greater than 100 µM in each case. For the same molecule, the TGI in the assay with NCI-H226 lung, in the assay with HCT-116 colon and in the assay with OVCAR-8 ovarian was greater than 100 µM in each case.
As for `O=C(O)C1C=CCN1C(=O)C1C=CCN1C(=O)C1C=CCN1` (stereo not given) (H-[ΔPro]-[ΔPro]-[ΔPro]-OH; configuration not given here), the TGI with U251 CNS, with SF-295 CNS, with HOP-92 NSCLC, in the assay on HCT-15 colon, with CAKI-1 renal and in the assay with RPMI-8226 leukemia was greater than 100 µM throughout. The TGI in the assay with SF-268 CNS, in the assay with SN12C renal, with UACC-62 melanoma, in the assay with NCI-H23 lung, in the assay with UACC-257 melanoma and in the assay on A549 NSCLC was greater than 100 µM in each case. The TGI in the assay with NCI-H226 lung, in the assay on HCT-116 colon and with OVCAR-8 ovarian was greater than 100 µM throughout.
`Cc1cc(O)c2c(c1)C(=O)c1c(c(O)cc(O)c1-c1c(O)cc(O)c3c1C(=O)c1cc(C)cc(O)c1C3=O)C2=O`: the TGI in the assay with U251 CNS came to 46 µM; in the assay with SF-295 CNS it was 38.3 µM; in the assay on HOP-92 NSCLC, 34.4 µM; in the assay on HCT-15 colon, 38 µM; in the assay with CAKI-1 renal, 51.4 µM; with RPMI-8226 leukemia it was 32.9 µM. Besides, the TGI came out at 75.4 µM in the assay with SF-268 CNS; 41.2 µM in the assay on SN12C renal; 25.4 µM in the assay on UACC-62 melanoma; 50.8 µM with NCI-H23 lung; 50 µM in the assay on UACC-257 melanoma; 65.9 µM with A549 NSCLC. The TGI turned out to be 50 µM in the assay on NCI-H226 lung, 33.7 µM with HCT-116 colon and 47 µM with OVCAR-8 ovarian.

The values above are taken from PubChem BioAssay (NCI).
